Measurements taken from patent publication US20050096395A1, “Methods of treating attention deficit/hyperactivity disorder (adhd)” (priority 2002, published 2005).

Legend:
[1] = system: spontaneously hypertensive rats (SHR); test: delayed gratification response paradigm in animal model of AD/HD; type: in vivo, rat; conditions: 5, 10, 25 or 50 mg/kg over twenty-one days
Description: In this study, spontaneously hypertensive rats (SHR) are used as an animal model for AD/HD. The SHR animal model is described in Russell et al., 2000, Behavioral Brain Research, 117: 69-74; Russell, 2001, Metab. Brain Dis., 16: 143-149; and Sagvolden et al., 1992, Behav. Neural Biol., 58: 103-112. The study consists of two groups of rats: normal and SHR. Each group is further divided into two subgroups: placebo and milnacipran. […] The milnacipran is administered to the rats over a period of twenty-one days. The rats are from the normal and SHR groups are trained in the delayed gratification response paradigm as described in […] et al., 1996, Pharmacology and Biochemistry and Behavior, 54: 149-157. In this paradigm, rats learn to choose between five food pellets delivered after 30 seconds and one food pellet delivered after 5 seconds. Normal rats learn to choose the five food pellets delivered after 30 seconds at a higher frequency.

[2] = system: rats described in McGrath et al., 2000; test: animal model of tic disorder (McGrath et al., 2000); type: in vivo, rat; conditions: 5, 10, 25 or 50 mg/kg over twenty-one days, before vs after administration
Description: The rats are divided into two groups: placebo and milnacipran. […] The milnacipran is administered to the rats over a period of twenty-one days.

[3] = system: patients with AD/HD and comorbid tic disorder; test: randomized, double-blind, placebo-controlled trial in patients with AD/HD and comorbid tic disorder; type: in vivo, human; conditions: patients 7-15 years; 1.5-2 mg/kg/day; after 8 weeks of treatment
Source text: This study is a randomized, double-blind, placebo-controlled trial of parallel groups. […] Before entry into the study, each patient undergoes a detailed clinical evaluation by a psychiatrist and/or a psychologist. The diagnosis of AD/HD and comorbid tic disorder is made on the basis of this interview. Entry criteria includes age between 7 and 15 years, a DSM-IV diagnosis of AD/HD (any type), a DSM-IV tic disorder (any type), and a score of ≧1.5 standard deviation units for age and gender on the 10-item Conners hyperactivity index (Goyette et al., 1978, J. Abnorm. Child Psychol., 6: 221-236) rated by a teacher or parent. Exclusion criteria includes evidence of major depression, generalized anxiety disorder, separation anxiety disorder, or psychotic symptoms. Children with moderate or more severe tic symptoms (Yale Global Tic Severity Scale [[…] et al., 1989, J Am Acad Child Adolesc Psychiatry, 28: 566-573] total tic score of>22) or significant obsessive-compulsive symptoms (Children's Yale Brown Obsessive Compulsive Scale [[…] et al., 1997, J Am Acad Child Adolesc Psychiatry, 36: 844-852] total score>15) are also excluded. Before entry into the study the patients are tapered off their current medication. The participants in the study are randomly divided into two groups-milnacipran group and placebo control group. Each group consists of 5 patients. […] The patients in the placebo group are administered a placebo for 8 weeks. The patient's course is followed at visits with a primary clinician, who is blind to the patient's study group, every 2 weeks. The AD/HD rating scale, Clinical Global Impression global improvement score, and Yale Global Tic Severity Scale are used to follow the outcome measures. […] Each symptom was scored by the child's teacher from 0 to 3 (0=never [or rarely], 1=sometimes, 2=often, and 3=very often). […] A score of much improved or very much improved, reflecting meaningful improvement in AD/HD symptoms both at school and at home, is counted as a positive response. […]

norepinephrine reuptake = conditions: cited from earlier work
NMDA receptor = conditions: cited from earlier work

For `CCN(CC)C(=O)[C@]1(c2ccccc2)C[C@@H]1CN` (racemic) [milnacipran, cis-(±)-2-(aminomethyl)-N,N-diethyl-1-phenyl-yclopropanecarboxamide], the “time required by SHR rats to choose five food pellets delivered after 30 seconds at a higher frequency” value [1] was “reduced, approaching the amount of time required by the normal rats”, the “abnormal behavior such as climbing/leaping, gnawing, and other tic-like behaviors” value [2] was “reduces the abnormal behavior” and the “AD/HD Rating Scale” value [3] was “improvement”. The “Clinical Global Improvement Scale” value [3] was “improvement”, the “Yale Global Tic Severity Scale” value [3] was “improvement” and the IC50 (norepinephrine reuptake) was […]. The IC50 (NMDA receptor) was roughly 6.3 µM.
